Patent US20050070552A1, “Ion channel modulating activity I” (Cardiome Pharma Corp., priority 2003, published 2005)
Read-outs that look alike come from different tables or passages of the source.

What was measured:
[1] = assay type: in vivo, rabbit
Procedure: Briefly, continuous infusion of COMPOUND A was administered prior to continuous infusion of methoxamine and followed by clofilium. The incidence of TdP (the number of animals in which TdP occurred) was compared to experiments in which COMPOUND A was not infused.
The following procedure was used: (1) Female NZW rabbits were weighed and anaesthetised initially with 35 mg/kg sodium pentobarbital via ear vein (60 mg/mL) using a sterile 23G 3/4 needle. Additional doses (in increments of 0.2-0.3 mL) were used if required to attain and maintain sufficient anaesthesia as determined by abolishment of eyelid reflex. Care was taken not to over anaesthetize as this could cause respiratory and cardiac arrest. (2) The anaesthetised rabbit was placed on a rabbit restraining board in the supine position and limbs were tied down. (3) The fur in the neck and inguinal region were wetted with water and trimmed down to the skin with scissors to facilitate dissection. Fur was placed in a water-filled beaker to prevent fur from becoming airborne. (4) The left or right femoral artery was cannulated with PE 50 tubing and attached to a pressure transducer to monitor blood pressure. (5) The right and left jugular veins were cannulated using PE-90 tubing for drug delivery via an infusion pump. (6) The left or right femoral vein was cannulated using PE-50 tubing for drug delivery via an infusion pump. (7) ECG leads were attached as follows: the ground lead was inserted subcutaneously into the femoral vein region; one lead was inserted subcutaneously near the apex of the heart and the third lead was placed in the open surgical area near the right jugular vein. (8) Control recordings of ECG and blood pressure were taken for 5 minutes to observe pre-drug effects. Recordings were continued throughout the entire experiment. (9) Arterial K^+ concentration was measured with the hand-held I-STAT blood-gas analyzer prior to infusion of arrhythmogenic agent and at the end of the experiment. […] Infusion was continued throughout the experiment. (11) After a further 5 minutes, methoxamine was administered at 20 μg/kg/min via the femoral vein. Methoxamine infusion was also continued throughout the experiment. (12) 10 minutes following the start of methoxamine infusion, clofilium was infused via a jugular vein. (13) In COMPOUND A-pretreated animals and controls, recording continued for 15 minutes regardless of whether TdP is seen or not. (14) A blood sample was collected when the experimental endpoint was reached, immediately after the infusion pumps were stopped.
COMPOUND A was applied and examined as described. To analyze the data, the parameters measured are (1) incidence of TdP (2) duration of TdP episodes (3) arterial K^+ concentration, (4) PR, QRS and QTc intervals during normal sinus rhythm (until arrhythmias begin and determination is no longer possible), (5) BP, and (6) HR.

[2] = target: human heart sodium channels (hH1) (Homo sapiens, UniProt Q14524); assay type: cell-based
human heart sodium channels (hH1), sequence (Q14524 whole entry, looked up): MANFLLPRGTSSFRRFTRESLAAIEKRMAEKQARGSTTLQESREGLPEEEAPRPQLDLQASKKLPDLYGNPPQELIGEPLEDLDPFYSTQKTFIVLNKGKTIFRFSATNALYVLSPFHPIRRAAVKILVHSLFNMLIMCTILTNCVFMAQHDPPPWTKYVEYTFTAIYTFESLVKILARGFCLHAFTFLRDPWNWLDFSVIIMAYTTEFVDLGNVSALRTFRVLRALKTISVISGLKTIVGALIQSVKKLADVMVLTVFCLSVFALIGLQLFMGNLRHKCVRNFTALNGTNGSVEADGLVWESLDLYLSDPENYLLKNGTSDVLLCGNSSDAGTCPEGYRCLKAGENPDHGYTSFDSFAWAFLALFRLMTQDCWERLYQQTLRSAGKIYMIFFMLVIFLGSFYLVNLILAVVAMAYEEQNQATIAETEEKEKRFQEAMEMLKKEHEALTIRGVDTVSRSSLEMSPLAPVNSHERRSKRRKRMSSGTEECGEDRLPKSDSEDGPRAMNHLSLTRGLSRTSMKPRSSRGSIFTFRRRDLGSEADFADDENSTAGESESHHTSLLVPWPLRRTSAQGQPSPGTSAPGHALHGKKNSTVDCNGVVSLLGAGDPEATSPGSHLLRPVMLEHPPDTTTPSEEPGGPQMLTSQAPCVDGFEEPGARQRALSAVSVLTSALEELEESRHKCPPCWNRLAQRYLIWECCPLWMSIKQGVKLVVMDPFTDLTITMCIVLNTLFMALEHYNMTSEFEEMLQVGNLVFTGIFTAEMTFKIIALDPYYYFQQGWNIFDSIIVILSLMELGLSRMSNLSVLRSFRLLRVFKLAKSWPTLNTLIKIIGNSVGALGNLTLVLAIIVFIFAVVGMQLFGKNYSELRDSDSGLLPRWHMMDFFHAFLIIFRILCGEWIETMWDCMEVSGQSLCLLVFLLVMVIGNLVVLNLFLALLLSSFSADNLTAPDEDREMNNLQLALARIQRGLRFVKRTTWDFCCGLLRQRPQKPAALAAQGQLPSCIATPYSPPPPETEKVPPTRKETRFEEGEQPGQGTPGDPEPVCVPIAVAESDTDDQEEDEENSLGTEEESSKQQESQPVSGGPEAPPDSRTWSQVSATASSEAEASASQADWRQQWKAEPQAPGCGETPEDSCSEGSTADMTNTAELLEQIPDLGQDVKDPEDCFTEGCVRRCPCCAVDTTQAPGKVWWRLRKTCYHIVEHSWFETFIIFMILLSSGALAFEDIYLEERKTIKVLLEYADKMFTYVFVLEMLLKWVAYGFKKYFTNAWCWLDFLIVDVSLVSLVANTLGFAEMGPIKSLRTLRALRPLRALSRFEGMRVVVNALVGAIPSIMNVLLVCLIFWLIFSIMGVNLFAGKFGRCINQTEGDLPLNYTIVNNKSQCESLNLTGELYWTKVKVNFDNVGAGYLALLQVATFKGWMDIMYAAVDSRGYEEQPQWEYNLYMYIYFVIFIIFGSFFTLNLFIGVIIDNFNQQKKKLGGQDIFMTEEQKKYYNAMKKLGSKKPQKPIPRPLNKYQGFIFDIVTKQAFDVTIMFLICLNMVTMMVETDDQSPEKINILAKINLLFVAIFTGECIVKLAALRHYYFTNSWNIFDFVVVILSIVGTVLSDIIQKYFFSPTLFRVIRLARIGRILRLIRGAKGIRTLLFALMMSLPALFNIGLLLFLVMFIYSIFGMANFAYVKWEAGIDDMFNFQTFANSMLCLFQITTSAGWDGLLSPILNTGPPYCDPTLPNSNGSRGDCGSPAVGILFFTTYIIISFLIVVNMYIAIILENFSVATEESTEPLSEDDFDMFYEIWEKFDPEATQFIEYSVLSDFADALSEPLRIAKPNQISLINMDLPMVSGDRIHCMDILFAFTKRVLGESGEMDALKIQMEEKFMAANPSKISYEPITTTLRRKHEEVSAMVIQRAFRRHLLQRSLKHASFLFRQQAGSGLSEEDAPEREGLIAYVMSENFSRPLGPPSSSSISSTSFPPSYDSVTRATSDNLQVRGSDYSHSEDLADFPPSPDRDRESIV

hH1 sodium channel = target: T1, hH1 sodium channel (Homo sapiens, UniProt Q14524); test: Inactivated state inhibition of hH1 sodium channel current (prepulse protocol); assay type: cell-based
T1 construct: expressed in transfected cells; host or cells: HEK293
T1 sequence (Q14524 whole entry): as the sequence (Q14524 whole entry, looked up) above

[3] = tested on: isolated rabbit Purkinje fibers; conditions: 100 μM
rabbit Purkinje fibers [4] = test: Action potential duration in rabbit Purkinje fibers; assay type: cell-based; conditions: n=10
Procedure: A midline thoracotomy was performed and the heart was excised as practised by those skilled in the art. […] The heart was perfused with standard bicarbonate buffered Krebs' solution known to those skilled in the art. An electrode was pulled from thin-walled filamented borosilicate glass capillary tubes having a resistance of 10 to 30 megaohms when filled with 3 M KCl. The electrode was attached to headstage mounted on an Axoclamp 2A amplifier (or a similar amplifier known to those skilled in the art). The microelectrode was brought down upon an exposed Purkinje fiber using a micromanipulator and the position was adjusted until the electrode penetrated a single Purkinje cell. The Purkinje fiber network was stimulated using a biphasic stimulation pulse and subsequent action potentials were recorded for analysis.

rabbit Purkinje fibers [5] = conditions: cited from earlier work
[6] = methoxamine plus clofilium, no pretreatment
[7] = 300 nM dofetilide in the presence of DMSO

Structure (SMILES): CCCCCCC[N+](CC)(CC)CCCCc1ccc(Cl)cc1 [clofilium]
- TdP incidence (animals) ([1]; methoxamine 20 μg/kg/min plus clofilium 300 nmol/kg/min, no pretreatment): 7 of 9
- increase in QTc interval 2.5 minutes after starting clofilium ([1]; methoxamine and clofilium without any pretreatment): 20±11%
- cumulative dose of clofilium at TdP [1, 6]: 1.4 ± 0.2 mg/kg
- time to TdP after starting clofilium infusion [1, 6]: 7.0 ± 1.3 min
- time to first PVC after starting clofilium infusion [1, 6]: 3.3 ± 0.5 min

Structure (SMILES): CCN(CC)CC(=O)Nc1c(C)cccc1C [lidocaine]
- block of TTX-sensitive early current Iearly(TTX) [2]: 41±2.7%
- block of TTX-sensitive late current Ilate(TTX) [2]: 73±2.8%
- block of TTX-sensitive sustained current Isus(TTX) [2]: 70±2.5%
- hH1 inhibition with longer prepulses (inactivated state inhibition) (hH1 sodium channel): enhanced inhibition
- termination of EADs induced by 300 nM dofetilide [3]: terminated

Structure (SMILES): NC1=N[C@H](O)[C@H]2[C@H]3O[C@]4(O)O[C@@H]([C@@H](O)[C@@]2(N1)[C@@H]4O)[C@]3(O)CO [TTX, tetrodotoxin]
- block of unsubtracted Iearly [2]: completely

Structure (SMILES): CN(CCOc1ccc(NS(C)(=O)=O)cc1)CCc1ccc(NS(C)(=O)=O)cc1 [dofetilide]
- increase in APD90 (rabbit Purkinje fibers [4]; [7]): 92%
- percentage increase in APD50 (rabbit Purkinje fibers [4]; [7]): 86%
- Vmax (rabbit Purkinje fibers [4]; dofetilide and DMSO): 253±48 V/s
- increase of APD90 (rabbit Purkinje fibers [5]; 10 nM, BCL=1000 ms): 83%

Structure (SMILES): C=C[C@H]1C[N@@]2CC[C@H]1C[C@@H]2[C@@H](O)c1ccnc2ccc(OC)cc12 [quinidine]
- increase of APD90 (rabbit Purkinje fibers [5]; 10 μM): 93%
